Source: US5886011A, “Piperidine derivatives as substance P antagonists” (Hisamitsu Pharmaceutical Co., Inc., priority 1995, dated 1999)
Where a name gives a salt, the structure may show the parent alone. Read-outs that look alike come from different tables or passages of the source.

Experiments:
[1] = biological target: T1, Substance P receptor (guinea pig ileum longitudinal muscle) (Cavia porcellus, UniProt P30547); experiment: Receptor-binding test ([125I]SP ligand, guinea pig ileum longitudinal muscle receptor samples); conditions: 10^-8 M compound; [125I]SP 50 pM, 22° C., 20 minutes
T1 construct: ileum was removed and the longitudinal muscle was stripped off; from tissue; host or cells: guinea pig ileum longitudinal muscle, washed membrane pellets
T1 sequence (P30547 whole entry): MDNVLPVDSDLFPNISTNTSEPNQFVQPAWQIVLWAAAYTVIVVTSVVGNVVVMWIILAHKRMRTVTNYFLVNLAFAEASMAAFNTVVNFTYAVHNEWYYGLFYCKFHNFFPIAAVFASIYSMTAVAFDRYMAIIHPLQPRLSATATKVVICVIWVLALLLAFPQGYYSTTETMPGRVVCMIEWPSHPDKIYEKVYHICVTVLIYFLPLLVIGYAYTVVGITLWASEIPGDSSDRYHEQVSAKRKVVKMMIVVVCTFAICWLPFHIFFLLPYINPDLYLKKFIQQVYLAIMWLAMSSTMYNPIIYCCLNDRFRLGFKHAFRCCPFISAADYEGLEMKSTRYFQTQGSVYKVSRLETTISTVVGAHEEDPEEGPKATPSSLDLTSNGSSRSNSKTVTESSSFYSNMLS
Description: To the longitudinal muscles, 20 times of the wet weight of the buffer solution (1) (50 mM tris-HCl buffer solution containing 2 mM MgCl2 and 0.1 mM phenyl methyl sulfonyl-fluoride, pH 7.4) was added. The mixture was homogenized under ice-cooling and centrifuged at 48,000×G for 15 minutes. After removing the supernatant, the pellets were re-suspended in the buffer solution (1) and centrifuged at 48,000×G for 15 minutes. The buffer solution (2) (50 mM tris.HCl buffer solution containing 10 mM ethylenediaminetetraacetic acid and 300 mM KCl, pH 7.4) was added to the pellets and suspended to be reacted under ice-cooling for 60 minutes. The resulted reaction materials were centrifuged at 48,000×G for 15 minutes. After suspending the pellets in the buffer solution (1) and distributing, the mixture were centrifuged at 48,000×G for 15 minutes. The pellets were stored at -80° C. until used as receptor samples.
Thus obtained receptor samples were suspended in 50 mM tris-HCl buffer solution to be used. As the buffer solution, binding buffer solution (tris.HCl buffer solution containing 0.02% bovine serum albumin, 40 μg/ml bacitracin, 4 μg/ml chymostatin, 4 μg/ml leupeptin and 3 mM MnCl2, pH7.4) was used.

[2] = tested on: Substance P (guinea pig ileum); experiment: Bioassay test: Substance P-induced contraction of guinea pig ileum strips; conditions: 10^-7 M compound; contraction by 10^-8 M Substance P regarded as 100%
Description: B. Bioassay Test […] After exsanguinating guinea pigs (body weight: 500-600 g) deadly, ileum was removed and 2 cm of ileum strips were prepared. In a Tyrode's solution (10 ml, 37° C.) in which air is passed, containing 5.2 μM atropine and 4.1 μM indomethacin, the strips having 0.5 g resting tension was suspended, and contractions of muscle were recorded on a recording device (RTA-1200, manufactured by Nihon Kohden) via an isotonic transducer (TB-612T, manufactured by Nihon Kohden). Using three specimens per one group, effects of the subject drugs on the muscle contraction caused by 10^-8 M Substance P were determined.

[3] = tested on: Substance P; experiment: Antagonism test on Substance P-induced airway edema; assay type: in vivo, guinea pig (hartley male); conditions: Cavia porcellus, po, read-out: Inhibition Rate (airway edema, dye transudated into trachea and main bronchi)
Description: C. Antagonism Test on Substance P-induced Airway Edema
20 mg/kg of Evans' Blue and 1 nm/kg Substance P containing 200 I.U./kg of heparin were administered intravenously to hartley male guinea pigs in order to induce airway edema. After ten minutes, the guinea pigs were exsanguinated deadly. The amounts of the dye transudated into trachea and main bronchi were determined. 1 mg/kg of the subject compounds were administered orally at thirty minutes before the induction. […] Further, for comparison, the following compounds A and B were used.

[4] = tested on: cisplatin-induced emesis; experiment: Anti-emetic effect against cisplatin-induced emesis; assay type: in vivo, ferret (male); conditions: 1 mg/kg orally just after cisplatin (10 mg/kg i.p.); compared to the control group
Description: D. Anti-emetic Effect against Cisplatin-induced Emesis
The test was carried out using male ferret (approx. 1.5 kg.). Emesis was induced by intraperitoneal administration of cisplatin (10 mg/kg). 1 mg/kg of the subject compounds were administered orally just after the cisplatin administration. The results will be shown in Table 3 as the inhibition rates compared to the control group, using the number of vomits as indexes. Further, for comparisons, the following compounds A and C were used.

[5] = 1 mg/kg orally, thirty minutes before induction, compared to the control group

| SMILES | inhibition at 0.01 µM [1] [%] | Contriction Inhibition [2] [%] | inhibition in vivo at 1 mg/kg [3, 5] [%] | inhibition in vivo at 1 mg/kg [3] [%] | Inhibition Rate (number of vomits) [4] [%] |
| --- | --- | --- | --- | --- | --- |
| c1ccc([C@@H]2NCCC[C@@H]2NCc2cccc3c2OCCC3)cc1 [Example 10, (2S,3S)-3-[(3,4-dihydro-1,2-benzopyran-8-yl)methyl]amino-2-phenylpiperidinehydrochloride] | 86.2 | 61.8 |  |  |  |
| CC(C)(C)c1cc2c(c(CN[C@H]3CCCN[C@H]3c3ccccc3)c1)OCC2.Cl [Example 24, (2S,3S)-3-[(5-tert-butyl-2,3-dihydrobenzofuran-7-yl)methyl]amino-2-phenylpiperidine hydrochloride] | 50.3 | 69.5 | 64 |  |  |
| CC1Oc2c(CN[C@H]3CCCN[C@H]3c3ccccc3)cccc2C1C.Cl (stereo partly drawn) [Example 20, (2S,3S)-3-[(2,3-dimethyl-2,3-dihydrobenzofuran-7-yl)methyl]amino-2-phenylpiperidine hydrochloride] | 65 | 38.9 |  |  |  |
| Cl.c1ccc([C@@H]2NCCC[C@@H]2NCc2ccc3c(c2)OCCO3)cc1 [Example 19, (2S,3S)-3-(3,4-ethylenedioxybenzyl)amino-2-phenylpiperidine hydrochloride] | 48.7 | 22.1 |  |  |  |
| Cc1ccc(CN[C@H]2CCCN[C@H]2c2ccccc2)c2c1CC(C)(C)O2 [Example 16, (2S,3S)-3-[2,2,4-trimethyl-2,3-dihydrobenzofuran-7-yl)methyl]amino-2-phenylpiperidine hydrochloride] | 82.5 | 78.3 |  |  |  |
| CC1Cc2cccc(CN[C@H]3CCCN[C@H]3c3ccccc3)c2O1.Cl (single isomer, unassigned) [Example 3] |  | 93.2 |  |  |  |
| CSc1cc(CN[C@H]2CCCN[C@H]2c2ccccc2)c2c(c1)CC(C)(C)O2.Cl [Example 5, (2S,3S)-3-[(2,2-dimethyl-5-methylthio-2,3-dihydrobenzofuran-7-yl)methyl]amino-2-phenylpiperidine hydrochloride] | 91.8 | 80.5 |  |  |  |
| CC1(C)Cc2c(Cl)ccc(CN[C@H]3CCCN[C@H]3c3ccccc3)c2O1.Cl [Example 18, (2S,3S)-3-[(4-chloro-2,2-dimethyl-2,3-dihydrobenzofuran-7-yl)methyl]amino-2-phenylpiperidine hydrochloride] | 89.9 | 81.2 |  |  |  |
| Cl.c1ccc([C@@H]2NCCC[C@@H]2NCc2cc(C3CCCCC3)cc3c2OCC3)cc1 [Example 26, (2S,3S)-3-[(5-cyclohexyl-2,3-dihydrobenzofuran-7-yl)methyl]amino-2-phenylpiperidine hydrochloride] | 56.4 | 62.1 | 61 |  |  |
| Cc1ccc(CN[C@H]2CCCN[C@H]2c2ccccc2)c2c1C(C)C(C)O2.Cl (stereo partly drawn) [Example 21, (2S,3S)-3-[(2,3,4-trimethyl-2,3-dihydrobenzofuran-7-yl)methyl]amino-2-phenylpiperidine hydrochloride] | 53.1 | 13.4 |  |  |  |
| COc1ccc(OC(F)(F)F)cc1CN[C@H]1CCCN[C@H]1c1ccccc1 [Compound B, (2S,3S)-3-(2-methoxy-5-trifluoromethoxybenzyl)amino-2-phenylpiperidine hydrochloride, reference compound] |  |  |  | 44 |  |
| COc1cc(CN[C@H]2CCCN[C@H]2c2ccccc2)c2c(c1)CC(C)O2.Cl (stereo partly drawn) [Example 15, (2S,3S)-3-[(5-methoxy-2-methyl-2,3-dihydrobenzofuran-7-yl)methyl]amino-2-phenylpiperidine hydrochloride] | 88.1 | 75.2 |  |  |  |
| CC1(C)Cc2cccc(CN[C@H]3CCCN[C@H]3c3ccccc3)c2O1.Cl [Example 2, (2S,3S)-3-[(2,2-dimethyl-2,3-dihydrobenzofuran-7-yl)methyl]amino-2-phenylpiperidine hydrochloride] | 74.8 | 47.0 |  |  |  |
| CC1(C)Cc2cc(S(C)(=O)=O)cc(CN[C@H]3CCCN[C@H]3c3ccccc3)c2O1.Cl [Example 6, (2S,3S)-3-[(2,2-dimethyl-5-methylsulfonyl-2,3-dihydrobenzofuran-7-yl)methyl]amino-2-phenylpiperidine hydrochloride] | 74.8 | 50.9 |  |  |  |
| COc1ccc(C(C)C)cc1CN[C@@H]1CN2CCC1CC2.Cl [Compound C, (2S,3S)-N-(5-isopropyl-2-methoxyphenyl)methyl-1-azabicyclo[2,2,2]octane-3-amine hydrochloride, reference compound] |  |  |  |  | 10 |
| COc1cc(CN[C@H]2CCCN[C@H]2c2ccccc2)c2c(c1)CC(C)(C)O2 [Example 12, (2S,3S)-3-[(2,2-dimethyl-5-methoxy-2,3-dihydrobenzofuran-7-yl)methyl]amino-2-phenylpiperldine hydrochloride] | 82.2 | 43.0 |  |  |  |
| CC1Cc2cccc(CN[C@H]3CCCN[C@H]3c3ccccc3)c2O1.Cl (single isomer, unassigned) [Example 3, hydrochloride] | 96 |  |  |  |  |
| CC1(C)Cc2cc([N+](=O)[O-])cc(CN[C@H]3CCCN[C@H]3c3ccccc3)c2O1.Cl [Example 4, (2S,3S)-3-[(2,2-dimethyl-5-nitro-2,3-dihydrobenzofuran-7-yl)methyl]amino-2-phenylpiperidine hydrochloride] | 89.7 | 60.2 |  |  |  |
| CC1Cc2cc(S(=O)(=O)N(C)C)cc(CN[C@H]3CCCN[C@H]3c3ccccc3)c2O1 (stereo partly drawn) [Example 8, (2S,3S)-3-[(5-dimethlaminosulfonyl-2-methyl-2,3-dihydrobenzofuran-7-yl)methyl]amino-2-phenylpiperidine hydrochloride] | 92 | 85.0 |  |  |  |
| Cl.c1ccc([C@@H]2NCCC[C@@H]2NCc2ccc3c(c2)OCO3)cc1 [Example 9, (2S,3S)-3-(3,4-methylenedioxybenzyl)amino-2-phenylpiperidine hydrochloride] | 36.6 | 5.5 |  |  |  |
| CC1(C)Cc2cc(Cl)cc(CN[C@H]3CCCN[C@H]3c3ccccc3)c2O1.Cl [Example 11, (2S,3S)-3-[(5-chloro-2,2-dimethyl-2,3-dihydrobenzofuran-7-yl)methyl]amino-2-phenylpiperidine hydrochloride] | 85.8 | 58.2 |  |  |  |
| Cl.c1ccc([C@@H]2NCCC[C@@H]2NCc2cccc3c2OCC3)cc1 [Example 13, (2S,3S)-3-[(2,3-dihydrobenzofuran-7-yl)methyl]amino-2-phenylpiperidine hydrochloride] | 84.7 | 47.4 |  |  |  |
| CC1Cc2cc(Cl)cc(CN[C@H]3CCCN[C@H]3c3ccccc3)c2O1.Cl (stereo partly drawn) [Example 14, (2S,3S)-3-[(5-chloro-2-methyl-2,3-dihydrobenzofuran-7-yl)methyl]amino-2-phenylpiperidine hydrochloride] | 93.5 | 92.3 |  |  |  |
| CN(C)S(=O)(=O)c1cc(CN[C@H]2CCCN[C@H]2c2ccccc2)c2c(c1)CC(C)(C)O2.Cl [Example 7, (2S,3S)-3-[(2,2-dimethyl-5-dimethylaminosulfonyl-2,3-dihydrobenzofuran-7-yl)methyl]amino-2-phenylpiperidine hydrochloride] | 54 | 15.0 |  |  |  |
| Cc1cc(CN[C@H]2CCCN[C@H]2c2ccccc2)c2c(c1)CC(C)(C)O2.Cl [Example 17, (2S,3S)-3-[(2,2,5-trimethyl-2,3-dihydrobenzofuran-7-yl)methyl]amino-2-phenylpiperidine hydrochloride] | 94.2 | 94.6 |  |  |  |
